Measured values taken from patent publication US4345938A, “Herbicidal 2-haloacetanilides” (Monsanto Company, priority 1980, dated 1982).
≈ marks a conversion by molar mass, not a printed value.

Tests used:
Type in all cases: in vivo
blackgrass = test: Sugarbeet greenhouse test, BG; settings: in sugarbeets
Description: (§1) In the discussion of data below, occasional reference is made to herbicide application rates symbolized as "GR15 " and "GR85 "; these rates are given in kilograms per hectare (kg/ha) which are convertible into pounds per acre (lbs/A) by dividing the kg/ha rate by 1.12.
(§2) A further guide to the effectiveness of a chemical as a selective herbicide is the "selectivity factor" ("SF") for a herbicide in given crops and weeds. The selectivity factor is a measure of the relative degree of crop safety and weed injury and is expressed in terms of the GR15 /GR85 ratio, i.e., the GR15 rate for the crop divided by the GR85 rate for the weed, both rates in kg/ha (lb/A.)
(§3) In further tests in the greenhouse, the compound of Example 2 was tested for its activity against annual weeds in sugarbeets at test rates within the range of 0.07 to 1.12 kg/ha (0.0625 to 1.0 lb/A). The GR15 and GR85 rates for sugarbeets and the various weeds are shown in Table VI; the selectivity factors for the herbicide against the weeds in sugarbeets are shown in parentheses below the weeds; "NS" means non-selective within the test limits. The following abbreviations are used in the table: barnyardgrass (BYG), wild oats (WO), downy brome (DB); redroot pigweed (RRP), blackgrass (BG), large crabgrass (LCG) and yellow foxtail (YFT).

yellow foxtail = test: Sugarbeet greenhouse test, YFT; settings: in sugarbeets
Description: as §1, §2, §3

Barnyardgrass = test: Sugarbeet greenhouse test, BYG; settings: in sugarbeets
Description: as §1, §2, §3

Sugarbeets = test: Sugarbeet greenhouse test, crop tolerance
Procedure: as §1, §3

large crabgrass = test: Sugarbeet greenhouse test, LCG; settings: in sugarbeets
Description: as §1, §2, §3

wild oats = test: Sugarbeet greenhouse test, WO; settings: in sugarbeets
Description: as §1, §2, §3

[1] = Fish toxicity (carp), Japanese protocol; settings: in vivo, carp (7 cm), read-out: TLM, Median Tolerance Limit (LC50)
Procedure: (§4) In view of the importance of fish toxicity considerations, tests were conducted with the compound of Example 1 on carp (7 cm) according to Japanese protocol; test data are shown in Table VII. Since U.S. Pat. No. 3,955,959 mentioned above discloses carp toxicity data for butachlor (Compound A) and terbuchlor (Compound C), also obtained according to Japanese protocol, the toxicity data in said U.S. Pat. No. 3,955,959 for these compounds is also presented in Table VII for comparative purposes.

Carp = test: Fish toxicity (carp), Japanese protocol
Procedure: as §4

Canada Thistle = test: Pre-emergent herbicidal test, Canada Thistle; settings: Table I; also: ranges in brackets are in %
Description: A good grade of top soil is placed in aluminum pans and compacted to a depth of three-eights to one-half inch from the top of the pan. On the top of the soil is placed a number of seeds or vegetative propagules of various plant species. The soil required to level fill the pans after seeding or adding vegetative propagules is weighted into a pan. The soil and a known amount of the active ingredient applied in a solvent or as a wettable powder suspension are thoroughly mixed, and used to cover the prepared pans. After treatment, the pans are moved into a greenhouse bench where they are watered by subirrigation as needed to give adequate moisture for germination and growth.
Approximately 2 weeks after seeding and treating, the plants were observed and the results recorded. The herbicidal rating was obtained by means of a fixed scale based on the percent injury of each plant species. The ratings are defined as follows: […]

direct-seeded rice = test: Field tests in direct-seeded rice; settings: less tolerant than transplant rice
Description: The herbicides of this invention may be used singly, as mixtures with other herbicides and may be used in sequential use with other herbicides. For example, treatments of a transplant rice crop with the herbicides of this invention may be followed with treatments of other herbicides or mixtures such as S-4-chlorobenzyl diethylthiocarbamate (common name "benthiocarb") plus 2-chloro-4,6-di(ethylamino)-1,3,5-triazine (common name "simazine") or 3-isopropyl-(1H)-benzo-2,1,3-thiadiazine-4-one-2,2-dioxide (common name "bentazone") or 4-(4-chloro-2-methylphenoxy)butyric acid (common name "MCPB"). […] However, because of the high unit activity of compounds according to this invention against annual and perennial weeds associated with rice, it is within the purview of this invention to combine these herbicides with safeners or antidotes, to enhance the tolerance of both transplanted and direct-seeded rice thereto. Exemplary safeners contemplated as useful with the herbicides of this invention include the phenylglyoxylonitrile-2-oxime cyanomethyl ether described in U.S. Pat. No. 4,152,137, 2,4-disubstituted-5-thiazolecarboxylic acids and derivatives thereof as disclosed in the assignee's copending U.S. Ser. No. 906,183 and other known safeners for 2-haloacetanilides in rice.

Structure (SMILES)	GR85 Rate, BG (blackgrass) [Kg/Ha]	selectivity factor, BG (blackgrass)	GR85 Rate, YFT (yellow foxtail) [Kg/Ha]	selectivity factor, YFT (yellow foxtail)	GR85 Rate, BYG (Barnyardgrass) [Kg/Ha]	selectivity factor, BYG (Barnyardgrass)	GR15 Rate, Sugarbeets (Sugarbeets) [Kg/Ha]	GR85 Rate, LCG (large crabgrass) [Kg/Ha]	selectivity factor, LCG (large crabgrass)	GR85 Rate, WO (wild oats) [Kg/Ha]	selectivity factor, WO (wild oats)	LC50 at 96 h ([1]; 96 Hours) [µg/mL]	LC50 at 48 h ([1]; 48 hours) [µg/mL]	expected fish kill relative to Compound A (Carp; at expected use rates, vs Compound A)	toxicity to carp relative to Compound A (Carp; vs Compound A)	toxicity to carp relative to Compound C (Carp; vs Compound C)	Rating, Canada Thistle (Canada Thistle; 5.6 kg/h)	Rating, Canada Thistle (Canada Thistle; 11.2 kg/h)	efficacy in direct-seeded rice (direct-seeded rice)
CCCCOc1cccc(CC)c1N(CC)C(=O)CCl [Example 2, N-ethyl-2'-n-butoxy-6'-ethyl-2-chloroacetanilide]	0.21	2.7	< 0.07	> 8.0	< 0.07	> 8.0	0.56	0.07	8.0	0.28	2.0	–	–	–	–	–	–	–	–
CCCCOc1cccc(CC)c1N(C)C(=O)CCl [Example 1, N-methyl-2'-n-butoxy-6'-ethyl-2-chloroacetanilide]	–	–	–	–	–	–	–	–	–	–	–	2.4 (≈ 8.46 µM)	3.2 (≈ 11.3 µM)	only one-sixth	less than one-third as toxic	almost one-half as toxic	3 (75-100)	3 (75-100)	less-efficacious
